Here are results for two compounds from article PMC3857843, “Multiple Transport-Active Binding Sites Are Available for a Single Substrate on Human P-Glycoprotein (ABCB1)” (PLoS ONE, 2013).

Data set [1] has as its target Q725C/V982C mutant Pgp (human MDR1) (Homo sapiens, UniProt P08183, C1074A/C1125A/C1227A/C137A/C431A/C717A/C956A/Q725C/V982C). The data set can be described thus: in vitro. Particulars: pH 6.8. The protocol:
(§1) Then, samples were photocrosslinked with IAAP at 4°C as described in the Materials and Methods section. Mean values from at least three independent experiments are plotted and error bars depict SD.
(§2) High-Five insect cells (Invitrogen, Carlsbad, CA) were infected with recombinant baculovirus carrying the human MDR1 cDNA cysless WT and various mutant Pgps, with a His6-tag at the C-terminus as described previously. Crude membranes were prepared as described previously
(§3) The crude membranes of High-Five insect cells containing 60-80 µg protein per 100 µL in 50 mM MES-Tris buffer (pH 6.8), were incubated for 10 minutes at 37°C in the absence (control) and presence of compound(s) at indicated concentration.

Data set [2] addresses T1, F978C mutant Pgp (Homo sapiens, UniProt P08183, C1074A/C1125A/C1227A/C137A/C431A/C717A/C956A/F978C). The data set can be described thus: biochemical. The protocol:
as §1, §2, §3

Data set [3] concerns the target F978C mutant Pgp (human MDR1) (Homo sapiens, UniProt P08183, C1074A/C1125A/C1227A/C137A/C431A/C717A/C956A/F978C). Briefly: in vitro. Particulars: human, pH 6.8. The protocol: as §1, §2, §3
The target in data set [4] is T2, Y307C/Q725C/V982C mutant Pgp (Homo sapiens, UniProt P08183, C1074A/C1125A/C1227A/C137A/C431A/C717A/C956A/Q725C/V982C/Y307C). Briefly: in vitro. The protocol:
as §1, §2, §3

Data set [5] concerns the target V982C mutant Pgp (human MDR1) (Homo sapiens, UniProt P08183, C1074A/C1125A/C1227A/C137A/C431A/C717A/C956A/V982C). Briefly: in vitro. Particulars: human, pH 6.8. The protocol: as §1, §2, §3
Data set [6] concerns the target cysless WT Pgp (human MDR1) (Homo sapiens, UniProt P08183, C1074A/C1125A/C1227A/C137A/C431A/C717A/C956A). Briefly: in vitro. Particulars: human, pH 6.8. The protocol: as §1, §2, §3
For data set [7], the target named is Y307C/Q725C/V982C mutant Pgp (human MDR1) (Homo sapiens, UniProt P08183, C1074A/C1125A/C1227A/C137A/C431A/C717A/C956A/Q725C/V982C/Y307C). The data set can be described thus: in vitro. As to conditions: human, pH 6.8. The protocol:
as §1, §2, §3

Data set [8] concerns the target Q725C mutant Pgp (human MDR1) (Homo sapiens, UniProt P08183, C1074A/C1125A/C1227A/C137A/C431A/C717A/C956A/Q725C). The data set can be described thus: in vitro. As to conditions: pH 6.8. The protocol: as §1, §2, §3
For data set [9], the target named is T3, V982C mutant Pgp (Homo sapiens, UniProt P08183, C1074A/C1125A/C1227A/C137A/C431A/C717A/C956A/V982C). Briefly: biochemical. The protocol:
as §1, §2, §3

Data set [10] has as its target F728C mutant Pgp (human MDR1) (Homo sapiens, UniProt P08183, C1074A/C1125A/C1227A/C137A/C431A/C717A/C956A/F728C). The data set can be described thus: in vitro. As to conditions: pH 6.8. The protocol: as §1, §2, §3
In data set [11] the target is T4, cysless WT Pgp (Homo sapiens, UniProt P08183, C1074A/C1125A/C1227A/C137A/C431A/C717A/C956A). Briefly: Inhibition of IAAP photo-labeling of Pgp in crude membranes. The protocol: as §1, §2, §3
For another data set, the system named is all mutant Pgps. Briefly: Vanadate-sensitive ATP hydrolysis of Pgp in crude membranes. Type of data set: biochemical, human. Particulars: all mutant Pgps; inhibition measured in presence of verapamil 5 µM. The protocol: Crude membranes were prepared as described previously
In data set [12] the target is T1, F978C mutant Pgp. The description is as above. As to conditions: Verapamil 50 µM, QZ59-SSS 1 µM, Valinomycin 10 µM. The protocol: (§4) Vanadate-sensitive Pgp-mediated ATP hydrolysis was measured as described in Materials and Methods. […] At least two independent experiments were carried out for each mutant with indicated compounds. Additional information including standard deviations, fold-stimulation or % inhibition, and number of experiments is given in the section (Tables S2 and S3).
as §2
(§5) Crude membranes (10-25 µg protein/100 µ L) from High Five insect cells expressing cysless WT or mutant Pgp were incubated in the presence and absence of sodium orthovanadate (0.3 mM), in a buffer containing 50 mM MES-Tris pH 6.8, 50 mM KCl, 5 mM NaN3, 1 mM EGTA, 1 mM ouabain, 2 mM DTT, and 10 mM MgCl2. […] The reaction was initiated by addition of 5 mM ATP and continued for 20 min at 37°C. […] The reaction was stopped by addition of 100 µ L of 5% SDS and the amount of inorganic phosphate generated was quantified with a colorimetric reaction, as previously described.

The target in the next data set is Q725C/V982C mutant Pgp (Homo sapiens, UniProt P08183, C1074A/C1125A/C1227A/C137A/C431A/C717A/C956A/Q725C/V982C). The data set is described as above. As to conditions: Verapamil 50 µM, QZ59-SSS 1 µM, Valinomycin 10 µM, FSBA 1 mM. The protocol:
as §4, §2, §5

The next data set deals with F728C mutant Pgp (Homo sapiens, UniProt P08183, C1074A/C1125A/C1227A/C137A/C431A/C717A/C956A/F728C). Described as above. As to conditions: Verapamil 50 µM, QZ59-SSS 1 µM, Valinomycin 10 µM, FSBA 1 mM. The protocol:
as §4, §2, §5

The target in data set [13] is T2, Y307C/Q725C/V982C mutant Pgp. The description is as above. Particulars: Verapamil 50 µM, QZ59-SSS 1 µM, Valinomycin 10 µM, FSBA 1 mM. The protocol: as §4, §2, §5
The next data set deals with F728C/V982C mutant Pgp (Homo sapiens, UniProt P08183, C1074A/C1125A/C1227A/C137A/C431A/C717A/C956A/F728C/V982C). Described as above. As to conditions: Verapamil 50 µM, QZ59-SSS 1 µM, Valinomycin 10 µM, FSBA 1 mM. The protocol:
as §4, §2, §5

The next data set deals with Y307C/V982C mutant Pgp (Homo sapiens, UniProt P08183, C1074A/C1125A/C1227A/C137A/C431A/C717A/C956A/V982C/Y307C). Described as above. As to conditions: Verapamil 50 µM, QZ59-SSS 1 µM, Valinomycin 10 µM, FSBA 1 mM. The protocol: as §4, §2, §5
In another data set the target is Q725C mutant Pgp (Homo sapiens, UniProt P08183, C1074A/C1125A/C1227A/C137A/C431A/C717A/C956A/Q725C). The description is as above. Particulars: Verapamil 50 µM, QZ59-SSS 1 µM, Valinomycin 10 µM, FSBA 1 mM. The protocol:
as §4, §2, §5

The target in the next data set is Y307C mutant Pgp (Homo sapiens, UniProt P08183, C1074A/C1125A/C1227A/C137A/C431A/C717A/C956A/Y307C). The data set is described as above. Particulars: Verapamil 50 µM, QZ59-SSS 1 µM, Valinomycin 10 µM, FSBA 1 mM. The protocol: as §4, §2, §5
The target of data set [14] is T3, V982C mutant Pgp. The description is as above. As to conditions: Verapamil 50 µM, QZ59-SSS 1 µM, Valinomycin 10 µM, FSBA 1 mM. The protocol: as §4, §2, §5
In data set [15] the target is T4, cysless WT Pgp. The data set is described as above. Particulars: Verapamil 50 µM, QZ59-SSS 1 µM, Valinomycin 10 µM, FSBA 1 mM. The protocol:
as §4, §2, §5

A further data set deals with Q725A mutant Pgp (Homo sapiens, UniProt P08183, C1074A/C1125A/C1227A/C137A/C431A/C717A/C956A/Q725A). Described as above. Particulars: Verapamil 50 µM, QZ59-SSS 1 µM, Valinomycin 10 µM. The protocol: as §4, §2, §5
The target in the next data set is F343C/V982C mutant Pgp (Homo sapiens, UniProt P08183, C1074A/C1125A/C1227A/C137A/C431A/C717A/C956A/F343C/V982C). The data set is described as above. Particulars: Verapamil 50 µM, QZ59-SSS 1 µM, Valinomycin 10 µM, FSBA 1 mM. The protocol:
as §4, §2, §5

By inhibition is commonly meant the percentage by which the read-out fell short of the control. The low end stands for a weak effect, the high end for a strong effect. Broadly, the IC50 is the concentration needed to halve the response being measured. Low values mean greater potency, high ones weaker potency.

T4 sequence (P08183 whole entry C137A/C431A/C717A/C956A/C1074A/C1125A/C1227A): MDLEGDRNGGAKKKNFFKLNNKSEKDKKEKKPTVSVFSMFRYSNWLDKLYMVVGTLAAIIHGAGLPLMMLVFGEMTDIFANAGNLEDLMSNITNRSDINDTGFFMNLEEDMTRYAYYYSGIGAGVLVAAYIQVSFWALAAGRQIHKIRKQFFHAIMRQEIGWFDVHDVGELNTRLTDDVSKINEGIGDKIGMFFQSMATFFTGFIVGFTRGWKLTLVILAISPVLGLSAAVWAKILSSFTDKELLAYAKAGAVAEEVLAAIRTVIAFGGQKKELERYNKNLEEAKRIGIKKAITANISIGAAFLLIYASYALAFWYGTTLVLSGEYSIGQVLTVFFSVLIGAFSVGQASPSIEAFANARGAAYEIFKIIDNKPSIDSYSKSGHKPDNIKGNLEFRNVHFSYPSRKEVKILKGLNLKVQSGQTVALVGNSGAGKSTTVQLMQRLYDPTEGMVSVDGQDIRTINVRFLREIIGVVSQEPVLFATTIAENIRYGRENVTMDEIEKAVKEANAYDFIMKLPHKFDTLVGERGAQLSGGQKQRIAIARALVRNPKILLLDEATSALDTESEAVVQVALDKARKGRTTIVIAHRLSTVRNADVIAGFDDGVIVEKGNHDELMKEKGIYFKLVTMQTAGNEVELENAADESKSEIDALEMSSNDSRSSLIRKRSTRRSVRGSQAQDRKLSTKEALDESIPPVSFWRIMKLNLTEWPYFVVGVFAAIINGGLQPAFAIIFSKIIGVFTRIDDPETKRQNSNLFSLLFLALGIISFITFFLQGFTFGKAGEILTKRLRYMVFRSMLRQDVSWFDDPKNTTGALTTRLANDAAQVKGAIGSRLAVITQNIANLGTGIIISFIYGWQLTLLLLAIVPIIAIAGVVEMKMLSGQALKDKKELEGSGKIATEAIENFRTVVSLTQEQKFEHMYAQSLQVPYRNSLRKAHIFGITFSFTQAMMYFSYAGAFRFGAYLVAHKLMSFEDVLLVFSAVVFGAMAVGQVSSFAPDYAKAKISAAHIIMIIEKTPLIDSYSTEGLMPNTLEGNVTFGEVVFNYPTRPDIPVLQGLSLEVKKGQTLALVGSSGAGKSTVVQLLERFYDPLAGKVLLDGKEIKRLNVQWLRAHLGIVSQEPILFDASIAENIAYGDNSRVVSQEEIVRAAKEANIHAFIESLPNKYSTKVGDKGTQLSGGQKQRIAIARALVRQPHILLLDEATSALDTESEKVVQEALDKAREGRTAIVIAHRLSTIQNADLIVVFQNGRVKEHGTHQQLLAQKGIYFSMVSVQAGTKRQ
T2 sequence (P08183 whole entry C137A/Y307C/C431A/C717A/Q725C/C956A/V982C/C1074A/C1125A/C1227A): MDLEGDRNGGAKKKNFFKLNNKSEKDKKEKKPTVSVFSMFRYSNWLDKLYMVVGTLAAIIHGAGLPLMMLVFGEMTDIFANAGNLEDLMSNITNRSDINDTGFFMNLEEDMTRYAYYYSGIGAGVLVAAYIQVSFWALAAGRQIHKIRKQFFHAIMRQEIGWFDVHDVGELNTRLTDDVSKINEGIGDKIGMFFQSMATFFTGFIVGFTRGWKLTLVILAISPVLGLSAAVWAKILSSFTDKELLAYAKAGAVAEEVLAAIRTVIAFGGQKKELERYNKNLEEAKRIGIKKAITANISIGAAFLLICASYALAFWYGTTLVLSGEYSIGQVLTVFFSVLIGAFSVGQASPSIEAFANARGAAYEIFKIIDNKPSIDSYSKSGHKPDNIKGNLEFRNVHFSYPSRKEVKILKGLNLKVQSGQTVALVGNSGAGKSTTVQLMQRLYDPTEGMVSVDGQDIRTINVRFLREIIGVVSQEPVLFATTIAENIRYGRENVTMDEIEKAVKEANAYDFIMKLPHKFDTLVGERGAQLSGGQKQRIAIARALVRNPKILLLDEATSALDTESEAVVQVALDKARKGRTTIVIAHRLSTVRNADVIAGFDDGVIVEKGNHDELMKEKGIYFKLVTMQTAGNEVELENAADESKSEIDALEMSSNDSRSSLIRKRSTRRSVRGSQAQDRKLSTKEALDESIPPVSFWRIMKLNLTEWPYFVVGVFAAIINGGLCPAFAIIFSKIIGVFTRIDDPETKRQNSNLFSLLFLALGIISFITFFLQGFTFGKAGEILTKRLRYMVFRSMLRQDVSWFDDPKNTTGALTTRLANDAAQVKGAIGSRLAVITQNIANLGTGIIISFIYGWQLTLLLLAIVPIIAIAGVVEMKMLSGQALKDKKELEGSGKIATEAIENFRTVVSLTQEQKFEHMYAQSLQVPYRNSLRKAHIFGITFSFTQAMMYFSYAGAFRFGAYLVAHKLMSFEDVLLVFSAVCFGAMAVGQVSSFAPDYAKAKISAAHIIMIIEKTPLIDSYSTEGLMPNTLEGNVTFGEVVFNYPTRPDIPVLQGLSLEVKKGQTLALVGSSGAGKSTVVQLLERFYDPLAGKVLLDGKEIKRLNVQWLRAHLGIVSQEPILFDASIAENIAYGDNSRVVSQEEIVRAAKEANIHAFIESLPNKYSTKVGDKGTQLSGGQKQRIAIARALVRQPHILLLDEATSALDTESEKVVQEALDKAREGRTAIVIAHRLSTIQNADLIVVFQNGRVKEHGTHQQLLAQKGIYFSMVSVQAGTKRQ
T1 sequence (P08183 whole entry C137A/C431A/C717A/C956A/F978C/C1074A/C1125A/C1227A): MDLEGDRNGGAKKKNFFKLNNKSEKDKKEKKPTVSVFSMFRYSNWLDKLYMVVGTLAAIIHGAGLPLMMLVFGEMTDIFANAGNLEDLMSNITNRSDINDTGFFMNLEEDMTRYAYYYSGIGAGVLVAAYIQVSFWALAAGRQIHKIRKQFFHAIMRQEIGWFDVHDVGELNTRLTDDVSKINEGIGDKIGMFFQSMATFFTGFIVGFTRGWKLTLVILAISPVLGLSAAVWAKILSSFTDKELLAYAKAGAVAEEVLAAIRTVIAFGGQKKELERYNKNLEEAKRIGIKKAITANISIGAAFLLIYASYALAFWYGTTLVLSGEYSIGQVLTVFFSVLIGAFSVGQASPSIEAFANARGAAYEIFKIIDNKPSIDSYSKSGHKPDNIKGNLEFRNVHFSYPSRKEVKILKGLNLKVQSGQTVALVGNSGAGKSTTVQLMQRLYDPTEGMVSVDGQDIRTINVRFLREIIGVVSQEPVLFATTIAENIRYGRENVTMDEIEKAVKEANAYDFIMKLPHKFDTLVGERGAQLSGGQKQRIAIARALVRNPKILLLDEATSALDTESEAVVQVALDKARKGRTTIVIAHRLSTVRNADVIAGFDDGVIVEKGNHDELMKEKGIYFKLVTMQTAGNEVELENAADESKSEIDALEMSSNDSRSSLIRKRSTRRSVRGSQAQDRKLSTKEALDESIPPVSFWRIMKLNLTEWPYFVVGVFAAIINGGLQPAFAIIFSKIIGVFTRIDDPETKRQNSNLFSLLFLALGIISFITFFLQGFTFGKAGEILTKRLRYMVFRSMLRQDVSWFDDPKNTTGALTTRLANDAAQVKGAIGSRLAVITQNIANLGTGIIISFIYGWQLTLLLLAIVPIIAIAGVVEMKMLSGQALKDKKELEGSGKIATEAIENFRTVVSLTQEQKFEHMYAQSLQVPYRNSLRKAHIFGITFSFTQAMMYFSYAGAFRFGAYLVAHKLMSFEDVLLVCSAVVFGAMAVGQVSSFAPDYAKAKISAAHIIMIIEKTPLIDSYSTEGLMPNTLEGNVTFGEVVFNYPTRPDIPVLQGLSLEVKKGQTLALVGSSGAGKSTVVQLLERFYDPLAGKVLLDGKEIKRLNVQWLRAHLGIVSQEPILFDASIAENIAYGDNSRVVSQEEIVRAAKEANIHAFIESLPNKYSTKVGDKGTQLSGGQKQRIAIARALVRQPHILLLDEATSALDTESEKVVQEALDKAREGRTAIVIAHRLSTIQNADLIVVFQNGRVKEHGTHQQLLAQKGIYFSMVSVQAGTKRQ
Q725A mutant Pgp, sequence (P08183 whole entry C137A/C431A/C717A/Q725A/C956A/C1074A/C1125A/C1227A): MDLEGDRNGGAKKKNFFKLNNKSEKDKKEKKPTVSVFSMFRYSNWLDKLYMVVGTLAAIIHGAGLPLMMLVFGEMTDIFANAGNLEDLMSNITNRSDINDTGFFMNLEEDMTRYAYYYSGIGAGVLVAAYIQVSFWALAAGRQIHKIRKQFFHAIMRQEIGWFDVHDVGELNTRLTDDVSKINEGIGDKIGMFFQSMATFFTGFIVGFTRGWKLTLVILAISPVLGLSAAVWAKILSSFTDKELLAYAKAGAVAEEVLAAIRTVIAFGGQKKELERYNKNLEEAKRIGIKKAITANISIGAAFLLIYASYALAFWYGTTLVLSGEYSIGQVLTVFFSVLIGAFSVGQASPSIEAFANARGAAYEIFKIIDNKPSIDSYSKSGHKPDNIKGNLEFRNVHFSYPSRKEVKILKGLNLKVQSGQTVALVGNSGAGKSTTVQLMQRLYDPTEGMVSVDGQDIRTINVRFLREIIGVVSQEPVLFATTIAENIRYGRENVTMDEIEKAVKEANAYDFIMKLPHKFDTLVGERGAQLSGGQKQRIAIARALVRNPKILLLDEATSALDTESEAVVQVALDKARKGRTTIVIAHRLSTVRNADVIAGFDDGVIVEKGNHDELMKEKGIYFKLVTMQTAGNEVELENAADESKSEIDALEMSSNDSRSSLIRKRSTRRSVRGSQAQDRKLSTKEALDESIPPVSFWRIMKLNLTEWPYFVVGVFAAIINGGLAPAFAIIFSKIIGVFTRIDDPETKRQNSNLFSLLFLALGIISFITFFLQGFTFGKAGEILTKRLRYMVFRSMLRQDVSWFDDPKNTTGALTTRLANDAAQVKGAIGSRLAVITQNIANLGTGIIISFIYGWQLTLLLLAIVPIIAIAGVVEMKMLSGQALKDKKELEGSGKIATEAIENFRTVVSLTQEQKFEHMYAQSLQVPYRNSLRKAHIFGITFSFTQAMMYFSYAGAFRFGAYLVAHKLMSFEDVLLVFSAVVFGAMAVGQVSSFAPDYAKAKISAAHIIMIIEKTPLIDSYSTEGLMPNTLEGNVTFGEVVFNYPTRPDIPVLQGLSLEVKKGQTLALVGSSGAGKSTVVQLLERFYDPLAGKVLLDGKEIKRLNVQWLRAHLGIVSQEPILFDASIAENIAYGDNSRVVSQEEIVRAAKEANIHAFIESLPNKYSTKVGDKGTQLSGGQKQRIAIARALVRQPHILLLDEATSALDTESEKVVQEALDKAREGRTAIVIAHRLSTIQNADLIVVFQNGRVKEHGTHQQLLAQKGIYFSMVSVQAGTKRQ

Take `COc1cc2c(cc1OC)CN(CCc1ccc(NC(=O)c3cc(OC)c(OC)cc3NC(=O)c3cnc4ccccc4c3)cc1)CC2` [Tariquidar, tariquidar]: the inhibition at 10 min in data set [1] is 22%; in data set [3], 73%; in [5], 64%; in data set [6], 97 ± 4%; in data set [7] it was 23%; in [8], 37%. In [10], this compound registered an inhibition at 10 min of 40%. Also, the 50% inhibitory concentration (IC50) was 3600 nM against F978C mutant Pgp [2], 700 nM against V982C mutant Pgp [9] and 140 ± 30 nM against cysless WT Pgp [11]. The “Ability to inhibit IAAP photo-labeling” value in data set [4] is on record as “lose almost completely this ability”. Moreover, in the data set on all mutant Pgps, the “Modulation of ATP hydrolysis” value is “found to be inhibited”.

As for `CC(C)[C@@H]1NC(=O)[C@H](C)OC(=O)[C@@H](C(C)C)NC(=O)[C@@H](C(C)C)OC(=O)[C@H](C(C)C)NC(=O)[C@H](C)OC(=O)[C@@H](C(C)C)NC(=O)[C@@H](C(C)C)OC(=O)[C@H](C(C)C)NC(=O)[C@H](C)OC(=O)[C@@H](C(C)C)NC(=O)[C@@H](C(C)C)OC1=O` [valinomycin], the “Ability to inhibit IAAP photo-labeling” value in [4] (Y307C/Q725C/V982C) was “lose almost completely this ability”. The compound further registered an inhibition at 10 min in [6] of 82%. For the same compound, the IC50 at cysless WT Pgp [11] was 600 nM. Also, the “ATP hydrolysis, Average” value on F978C mutant Pgp [12] is on record as 18 nmoles Pi/min/mg protein; at Q725C/V982C mutant Pgp, 5 nmoles Pi/min/mg protein; on F728C mutant Pgp, 23 nmoles Pi/min/mg protein; in data set [13], 14 nmoles Pi/min/mg protein; at F728C/V982C mutant Pgp, 10 nmoles Pi/min/mg protein; at Y307C/V982C mutant Pgp it was 33 nmoles Pi/min/mg protein. Moreover, the “ATP hydrolysis, Average” value on Q725C mutant Pgp is reported as 12 nmoles Pi/min/mg protein; on Y307C mutant Pgp it was 17 nmoles Pi/min/mg protein; at V982C mutant Pgp [14], 13 nmoles Pi/min/mg protein; on cysless WT Pgp [15], 40 nmoles Pi/min/mg protein; at Q725A mutant Pgp, 11 nmoles Pi/min/mg protein; on F343C/V982C mutant Pgp, 56 nmoles Pi/min/mg protein. Besides, the “ATP hydrolysis, Fold-stimulation” value on F978C mutant Pgp [12] (relative to basal) is given as 1.5; at F728C mutant Pgp (relative to basal), 3.9; in data set [13] (relative to basal), 2.8; at F728C/V982C mutant Pgp (relative to basal), 2.5; at Y307C/V982C mutant Pgp (relative to basal), 3.5; on Q725C mutant Pgp (relative to basal), 2.5. Moreover, the “ATP hydrolysis, Fold-stimulation” value at Y307C mutant Pgp (relative to basal) is 2.2; on cysless WT Pgp [15] (relative to basal) it was 1.9; on Q725A mutant Pgp (relative to basal), 2.1; at F343C/V982C mutant Pgp (relative to basal), 3.1.
